The experiment can be described thus: Transdermal hydrogen sulfide on forearm after N-acetyl cysteine, Interscan Halimeter PLUS. The experiment is classed as in vivo, human. The following applies: 600 mg oral; for Transdermal Hydrogen Sulfide H2S: adult male, forearm. Here is the method:
We hypothesized that formula 2 sustained a higher level of bioavailable NO than formula 1 because N-acetyl cysteine generates hydrogen sulfide in the body. To test this hypothesis, we measured transdermal hydrogen sulfide on the surface of the forearm after an adult subject ingested 600 mg of N-acetyl cysteine. The test was performed using Interscan Halimeter® PLUS with a simple modification of sample collection method. Hydrogen sulfide, the primary volatile sulfur compounds detectable by the device, was measured in triplicate for 6 hours after dosing with N-acetyl cysteine (Table IV). […] The data support a mechanism wherein N-acetyl cysteine increases hydrogen sulfide production that boosts NO availability and activity in the body.

Molecules are shown by their SMILES.

With `CC(=O)N[C@@H](CS)C(=O)O` [N-acetyl cysteine], the “Transdermal Hydrogen Sulfide H2S” value by setting is: (0 h) 16 ppb; (2 h) 27 ppb; (3 h) 46 ppb; (4 h) 51 ppb; (5 h) 40 ppb; (6 h) 16 ppb. Besides, the transdermal hydrogen sulfide (peak at 4 hours) worked out at 51 ppb, the transdermal hydrogen sulfide (starting value) came to 16 ppb and the transdermal hydrogen sulfide (within 2 hours) was 27 ppb.

The record behind these values is US20220331353A1, “SYNERGISTIC COMPOSITIONS AND METHODS TO INCREASE VASCULAR NITRIC OXIDE TO TREAT ENDOTHELIAL DYSFUNCTION AND RELATED CONDITIONS” (Calroy Health Sciences, LLC, priority 2021, published 2022).
